Source: US10941157B2, “Pesticidal compositions and uses thereof” (Gilead Apollo, LLC, priority 2015, dated 2021)
≈ marks a conversion by molar mass, not a printed value. Where two headings read alike, the source gives them in different places.

Experiments:
[1] = test system: Phytophthora capsici (Pc); experiment: In vitro pathogen growth inhibition assay, Pc; type: cell-based; conditions: 48 h
How it was run: (§1)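 Spores of Dm, Fv and Pc were diluted in 17% V8 liquid medium; Rs used 1.5 mm mycelial plugs in ¼ PDB. Compounds from 2.5 mg/ml DMSO stocks were combined with inoculum, growth was read by OD600 at 24 and 48 h with blank subtraction, and the reported value is the concentration giving ≥90% inhibition.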

Diplodia maydis (Dm) = experiment: In vitro pathogen growth inhibition assay, Dm; type: cell-based; conditions: Stenocarpella maydis, 48 h
How it was run: as §1

Rhizoctonia solani (Rs) = experiment: In vitro pathogen growth inhibition assay, Rs (mycelial plugs); type: cell-based; conditions: Rhizoctonia solani, 48 h, mycelial plugs
How it was run: as §1

Sphaerotheca fuliginea = experiment: Foliar protection for cucumber powdery mildew control; type: in vivo; conditions: foliar spray on Cucumis sativus cv. Straight Eight, inoculated 24 hours after treatment, evaluated 7 days later
How it was run: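 Protective foliar spray on 10-day-old Straight Eight cucumbers, with S. fuliginea spores dusted from infected stock plants 24 h after treatment. Disease developed at 23–27 °C, 60% RH and a 16 h photoperiod. Leaves were rated for mildew growth after 7 days; test rates 10 ppm or below.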

Fusarium graminearum = type: in vivo; conditions: spray on flowering Triticum aestivum cv. Samson, inoculated 24 hours after treatment, evaluated 14 days later
Rhizoctonia solani = experiment: Seed protectant for soybean seedling disease, R. solani; type: in vivo; conditions: soybean from treated seeds, 0.025 mg/seed, R. solani inoculated; for Plant Weight: fresh weight at 14 days; for Improvement in plant weight: percentage of non-inoculated non-treated controls
How it was run: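 Treated soybean seeds (cv. AG4832) sown over R. solani (sorghum) or P. ultimum (millet) inoculum, grown at 20–24 °C, 14 h light, 65% humidity. Emergence scored at 7 and 14 days; shoot fresh weight at 14 days compared against inoculated and non-inoculated untreated seeds.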

[2] = test system: Blumeria graminis f. sp. hordei; experiment: Early foliar disease control via seed treatment (barley powdery mildew); type: in vivo; conditions: seed treatment rate 0.025 mg/seed; barley inoculated 7 days after planting, evaluated 7 days later
Experimental: Barley seeds (Hordeum vulgare cv. Perry or Conlon) were treated with a test compound dissolved in pure acetone, in which the acetone solution (1 mL) was used per 50 seeds in glass jars in a fume hood. The seeds were swirled in the glass jars by hand until no obvious presence of acetone remained and the seeds were mostly dry. Plants were grown for 7 days in 2-inch square pots containing Metromix 200 medium amended with fertilizer. […] After inoculation with the pathogen of Blumeria graminis f. sp. hordei, plants were kept at conditions of 20 to 22° C., 200 uM of light, 70% humidity to facilitate infection and disease development. At 7 days after planting (1st true leaf fully expanded), the plants were moved to the cooler chamber and inoculated by shaking well-colonized, untreated stock plants above the treated material. […] Efficacy was evaluated in 7 days later by examining leaves for colonization and growth of powdery mildew. Each side of each leaf was assigned a severity rating of 0, 1, 5, 10, 25, 50, 75, or 100 percent diseased area. Table 14 lists the results of barley powdery mildew control upon seed treatment with test compounds.

[3] = ≥90% growth inhibition, 48 hours, vs 2% DMSO control, read-out: Compound Concentration (ppm) sufficient for ≥90% inhibition of Pc
[4] = ≥90% growth inhibition, 48 hours, vs 2% DMSO control, read-out: Compound Concentration (ppm) sufficient for ≥90% inhibition of Dm
[5] = ≥90% growth inhibition, 48 hours, vs 2% DMSO control, read-out: Compound Concentration (ppm) sufficient for ≥90% inhibition of Rs

Compound | IC90 ([1]; ≥90% inhibition, 48 hours vs 2% DMSO control, read-out: Compound Concentration (ppm) sufficient for ≥90% inhibition of growth, Pc) [µg/mL] | IC90 (Diplodia maydis (Dm); ≥90% inhibition, 48 hours vs 2% DMSO control, read-out: Compound Concentration (ppm) sufficient for ≥90% inhibition of growth, Dm) [µg/mL] | IC90 (Rhizoctonia solani (Rs); ≥90% inhibition, 48 hours vs 2% DMSO control, read-out: Compound Concentration (ppm) sufficient for ≥90% inhibition of growth, Rs) [µg/mL] | Cucumber Powdery Mildew Control at a compound concentration of 10 ppm or lower (Sphaerotheca fuliginea) | Wheat Fusarium Head Blight Control at a compound concentration of 25 ppm or lower (Fusarium graminearum) | Plant Weight (Rhizoctonia solani) [g] | Improvement in plant weight (Rhizoctonia solani) [%] | IC90 [1, 3] [µg/mL] | IC90 (Diplodia maydis (Dm); [4]) [µg/mL] | IC90 (Rhizoctonia solani (Rs); [5]) [µg/mL] | Barley Powdery Mildew Reduction (%) [2] [%]
COc1ccc(F)cc1[C@H](Cn1c(=O)n(C(C)(C)C(=O)NC(C)C)c(=O)c2c(C)c(-n3nccn3)sc21)OCCC#N [Compound I-095, (R)-2-(1-(2-(2-cyanoethoxy)-2-(5-fluoro-2-methoxyphenyl)ethyl)-5-methyl-2,4-dioxo-6-(2H-1,2,3-triazol-2-yl)-1,4-dihydrothieno[2,3-d]pyrimidin-3 (2H)-yl)-N-isopropyl-2-methylpropanamide] | ≥ 2 | 0.08 (≈ 0.134 µM) | 0.08 (≈ 0.134 µM) | AA (≥85% control of cucumber powdery mildew) | B (from 50 to 69% control of wheat fusarium head blight) | 7.54 | 93.9 |  |  |  | 
COc1ccc(F)cc1[C@H](Cn1c(=O)n(C(C)(C)C(=O)NC(C)C)c(=O)c2c(C)c(-n3cccn3)sc21)OCCC#N [Compound I-191, (R)-2-(1-(2-(2-cyanoethoxy)-2-(5-fluoro-2-methoxyphenyl)ethyl)-5-methyl-2,4-dioxo-6-(1H-pyrazol-1-yl)-1,4-dihydrothieno[2,3-d]pyrimidin-3 (2H)-yl)-N-isopropyl-2-methylpropanamide] |  |  |  | AA (≥85% control of cucumber powdery mildew) | C (from 25 to 49% control of wheat fusarium head blight) | 6.39 | 79.6 | 50 (≈ 83.8 µM) | ≥ 0.4 | 0.08 (≈ 0.134 µM) | 94
COc1ccccc1[C@H](Cn1c(=O)n(C(C)(C)C(=O)NC(C)C)c(=O)c2c(C)c(-n3nccn3)sc21)OCCC#N [Compound I-193, (R)-2-(1-(2-(2-cyanoethoxy)-2-(2-methoxyphenyl)ethyl)-5-methyl-2,4-dioxo-6-(2H-1,2,3-triazol-2-yl)-1,4-dihydrothieno[2,3-d]pyrimidin-3 (2H)-yl)-N-isopropyl-2-methylpropanamide] |  |  |  | AA (≥85% control of cucumber powdery mildew) | B (from 50 to 69% control of wheat fusarium head blight) | 6.83 | 85.0 | 2 (≈ 3.45 µM) | 0.08 (≈ 0.138 µM) | 0.08 (≈ 0.138 µM) | 96
